Results published in US7811352B2, “Fertilizer compositions and methods of using” (priority 2005, dated 2010).
Marks after values point to notes of the source that are not given here.

System: green height, creeping bentgrass
Assay: Color rating of green height creeping bentgrass after fertilization (Example 4)
Type: in vivo
Details: about two weeks after application
Procedure: In this Example, the efficacy of fertilizers on green height, creeping bentgrass was examined. Fertilizer compositions according to several embodiments of the present disclosure were prepared and compared to the commercial fertilizer products, urea 46-0-0 (granular) fertilizer, Lebanon fertilizer 21-0-12 (granular, commercially available from Lebanon Seaboard Corporation, Lebanon, Pa.) and Milorganite 6-2-0 (granular, commercially available from Milorganite, Milwaukee, Wis.). The fertilizer compositions were applied to the turf grass prior to winter dormancy of the turf at a rate equivalent to supplying about 1.0 pounds of nitrogen (N) per 1000 square feet. Each of the fertilizer compositions were applied at substantially equal rates of pounds (lbs) of nitrogen (N) per 1000 square feet. Table 1 illustrates the response of green height (i.e., the height of grass on golf course green), creeping bentgrass to fertilization using various exemplary fertilizers of the present invention, taken about two weeks after application of the fertilizer. The letters in the Color and Injury columns correspond to Duncan's Multiple Range Test. Numbers (means) in a column followed by the same letter are not statistically different at P=0.05.

Structure (SMILES): NC(N)=O [Urea, urea, reference compound]
- Color 1-9 (9 = dark green) (1.09 Lbs. product/1000 square feet): 6.7^a,b,c
- Color 1-9 (9 = dark green) (2.17 Lbs. product/1000 square feet): 6.7^a,b,c
- Color 1-9 (9 = dark green) (6.51 Lbs. product/1000 square feet): 6.0^d,c
